{"source": "patent US7365086B2", "about": "“Pramipexole acid addition salts” (Synthon IP Inc., priority 2003, dated 2008)", "key": {"[1]": {"settings": "DVS, 25° C.", "experimental": "The hygroscopicity was measured using a Dynamic Vapor Sorption apparatus or DVS (Surface Measurement Systems Ltd, UK) at 25° C. and at various controlled relative humidity conditions from 0 to 90%.\nFirst the relative humidity was changed from 0% to 60% and back to 0% (cycle 1). Subsequently, the relative humidity was raised by steps of 10% until 90% and reduced with steps of 10% until 0% (cycle 2). Finally, the relative humidity was changed to 60% and back to 0% (cycle 3). At each step the sample was conditioned till constant weight."}, "[2]": {"experiment": "Approximate water solubility of pramipexole acid addition salts (saturation in water, shaken overnight, evaporation and weighing)", "settings": "thermodynamic from solid", "description": "In general the acid addition salt was added to 2 ml of water in a test tube (1 ml of water was used for some of the very soluble salts) until a residue remained. The tube was shaken overnight at room temperature. The next morning 1 ml of the clear solution from above the solid residue was removed from the tube. This sample was evaporated and the residue was dried and weighed. In this way the approximate solubility of the salt in the water was determined."}}, "note": "Where a name gives a salt, the structure may show the parent alone.", "data": [{"smiles": "CCCN[C@H]1CCc2nc(N)sc2C1", "note": "[Pramipexole dihydrochloride monohydrate, pramipexole dihydrochloride monohydrate]", "values": [{"measurement": "water uptake relative to dry mass at 60% relative humidity", "setting": "[1]; 60% relative humidity", "result": "over 1.2%"}, {"measurement": "total water uptake relative to the dry mass in the step from 70% and 80% relative humidity", "setting": "[1]; 70% to 80% relative humidity", "result": 5, "unit": "%"}, {"measurement": "solubility", "setting": "[2]", "result": "> 300", "unit": "mg/mL"}]}]}
